Experimental data taken from patent US20200331882A1, “COMPOUND FOR SIMULTANEOUSLY INHIBITING LSD1 AND HDAC TARGETS AND APPLICATION THEREOF” (PEKING UNIVERSITY SHENZHEN GRADUATE SCHOOL, priority 2018, published 2020).
Like-named read-outs stand apart in the source and are kept apart here.

Experiments:
Assay in all cases: CellTiter-Glo cell proliferation
Type in all cases: cell-based
[1] = test system: UO.31; settings: CTG, 72 hours; for % inhibition at top conc.: highest concentration 10/50 μM; for IC50: read-out: Absolute IC50
Procedure: (§1) The effect of the present invention compound ZZY-003 on the cell proliferation of 50 cell lines was evaluated by CellTiter-Glo (CTG) method, and the 50% inhibitory concentration was calculated by detecting the cell viability after treatment with different drug concentrations. The cells were resuscitated and cultured in their respective culture media. The cells in logarithmic growth phase were harvested and the cells were counted by cell counter. The cell viability was detected by Trypan blue exclusion method to ensure that the cell line viability was more than 96%. The cell concentration was adjusted by diluting with the culture medium, and 90 μL cell suspension was added to the 96-well cell plate (including the cell control T0 on the day of drug treatment) to make the cell density reach the specified concentration. The cells in the 96-well plate were cultured overnight at 37° C., 5% CO2 and 95% humidity. 10 μL culture medium was added to the control cell culture plate. CellTiter-Glo reagent and cell culture plate were placed at room temperature to balance for 30 minutes. The same volume of CellTiter-Glo reagent was added to each well. Vibrate on the orbital shaker for 2 min to make the cells fully lytic. The cell culture plate was placed at room temperature to balance for 10 minutes. Chemiluminescence values were read with EnVision. The storage solution was formed by dissolving the tested compound with the corresponding solvent and diluted in gradient to obtain 10 times working concentration solution, and 10 times solution of positive drug was also prepared. 10 μL drug solution was added to each well in the 96-well plate in which the cells were inoculated, and each cell concentration was provided with three duplicate wells. The highest concentration of the tested compound was 10/50 μM, 9 concentrations and 3.16 times dilution. The cells in the 96-well plate added with drug were cultured at 37° C., 5% CO2 and 95% humidity for 72 hours. CellTiter-Glo reagent and drug-treated cell culture plate were placed at room temperature to balance for 30 minutes. The same volume of CellTiter-Glo reagent was added to each well. Vibrate on the orbital shaker for 2 minutes to make the cells fully lytic. The cell culture plate was placed at room temperature to balance for 10 minutes. Chemiluminescence values were read with EnVision. Data processing: […] Cell survival rate (%)=(Lum drug to be detected−Lum culture medium control)/(Lum cell control−Lum culture medium control)×100%; Lum cell control−Lum culture medium control was set to 100%, LumMedium control value was set to 0%;

[2] = test system: SF268; settings: 72 hours; for % inhibition at top conc.: highest concentration 10/50 μM; for IC50: read-out: Absolute IC50
Procedure: as §1

[3] = test system: SK-MEL-28; settings: CTG, 72 hours; for % inhibition at top conc.: highest concentration 10/50 μM; for IC50: read-out: Absolute IC50
Procedure: as §1

[4] = test system: H69AR; settings: CTG, 72 hours; for % inhibition at top conc.: highest concentration 10/50 μM; for IC50: read-out: Absolute IC50
Procedure: as §1

[5] = test system: 143B; settings: CTG, 72 hours; for % inhibition at top conc.: highest concentration 10/50 μM; for IC50: read-out: Absolute IC50
Procedure: as §1

[6] = test system: MCF 10A; settings: CTG, 72 hours; for % inhibition at top conc.: highest concentration 10/50 μM; for IC50: read-out: Absolute IC50
Procedure: as §1

[7] = test system: DLD-1; settings: CTG, 72 hours; for % inhibition at top conc.: highest concentration 10/50 μM; for IC50: read-out: Absolute IC50
Procedure: as §1

[8] = test system: Jurkat clone E6-1; settings: CTG, 72 hours; for % inhibition at top conc.: highest concentration 10/50 μM; for IC50: read-out: Absolute IC50
Procedure: as §1

[9] = test system: NCI-H82; settings: CTG, 72 hours; for % inhibition at top conc.: highest concentration 10/50 μM; for IC50: read-out: Absolute IC50
Procedure: as §1

[10] = test system: SK-N-FI; settings: CTG, 72 hours; for % inhibition at top conc.: highest concentration 10/50 μM; for IC50: read-out: Absolute IC50
Procedure: as §1

[11] = test system: T84; settings: CTG, 72 hours; for % inhibition at top conc.: highest concentration 10/50 μM; for IC50: read-out: Absolute IC50
Procedure: as §1

[12] = test system: 786-O; settings: 72 hours; for % inhibition at top conc.: highest concentration 10/50 μM; for IC50: read-out: Absolute IC50
Procedure: as §1

[13] = test system: OE19; settings: CTG, 72 hours; for % inhibition at top conc.: highest concentration 10/50 μM; for IC50: read-out: Absolute IC50
Procedure: as §1

[14] = test system: NCI-H1417; settings: CTG, 72 hours; for % inhibition at top conc.: highest concentration 10/50 μM; for IC50: read-out: Absolute IC50
Procedure: as §1

[15] = test system: CNE-2Z; settings: CTG, 72 hours; for % inhibition at top conc.: highest concentration 10/50 μM; for IC50: read-out: Absolute IC50
Procedure: as §1

[16] = test system: EBC-1; settings: CTG, 72 hours; for % inhibition at top conc.: highest concentration 10/50 μM; for IC50: read-out: Absolute IC50
Procedure: as §1

[17] = test system: AZ-521; settings: CTG, 72 hours; for % inhibition at top conc.: highest concentration 10/50 μM; for IC50: read-out: Absolute IC50
Procedure: as §1

[18] = test system: K-562; settings: 72 hours; for % inhibition at top conc.: highest concentration 10/50 μM; for IC50: read-out: Absolute IC50
Procedure: as §1

[19] = test system: HCT-116; settings: CTG, 72 hours; for % inhibition at top conc.: highest concentration 10/50 μM; for IC50: read-out: Absolute IC50
Procedure: as §1

[20] = test system: SW480; settings: CTG, 72 hours; for % inhibition at top conc.: highest concentration 10/50 μM; for IC50: read-out: Absolute IC50
Procedure: as §1

[21] = test system: BT474; settings: 72 hours; for % inhibition at top conc.: highest concentration 10/50 μM; for IC50: read-out: Absolute IC50
Procedure: as §1

[22] = test system: 5637; settings: CTG, 72 hours; for % inhibition at top conc.: highest concentration 10/50 μM; for IC50: read-out: Absolute IC50
Procedure: as §1

[23] = test system: SK-OV-3; settings: CTG, 72 hours; for % inhibition at top conc.: highest concentration 10/50 μM; for IC50: read-out: Absolute IC50
Procedure: as §1

[24] = test system: SU-DHL-6; settings: CTG, 72 hours; for % inhibition at top conc.: highest concentration 10/50 μM; for IC50: read-out: Absolute IC50
Procedure: as §1

[25] = test system: A549; settings: CTG, 72 hours; for % inhibition at top conc.: highest concentration 10/50 μM
Procedure: as §1

[26] = test system: PC-3; settings: CTG, 72 hours; for % inhibition at top conc.: highest concentration 10/50 μM; for IC50: read-out: Absolute IC50
Procedure: as §1

[27] = test system: SNU-5; settings: CTG, 72 hours; for % inhibition at top conc.: highest concentration 10/50 μM; for IC50: read-out: Absolute IC50
Procedure: as §1

[28] = test system: MDA-MB-231; settings: CTG, 72 hours; for % inhibition at top conc.: highest concentration 10/50 μM
Procedure: as §1

[29] = test system: LP-1; settings: CTG, 72 hours; for % inhibition at top conc.: highest concentration 10/50 μM; for IC50: read-out: Absolute IC50
Procedure: as §1

[30] = Homo sapiens, read-out: Absolute IC50

N.N.[Cl][Pt][Cl] [Cisplatin, reference compound]
% inhibition at top conc. [1]: 97.89% | IC50 [1]: 4230 nM | % inhibition at top conc. ([2]; CTG): 97.98% | IC50 ([2]; CTG): 2870 nM | % inhibition at top conc. [3]: 99.34% | IC50 [3]: 8610 nM | % inhibition at top conc. [4]: 94.93% | IC50 [4]: 5650 nM | % inhibition at top conc. [5]: 99.94% | IC50 [5]: 1150 nM | % inhibition at top conc. [6]: 99.51% | IC50 [6]: 13200 nM | % inhibition at top conc. [7]: 98.93% | IC50 [7]: 5300 nM | % inhibition at top conc. [8]: 99.96% | IC50 [8]: 840 nM | % inhibition at top conc. [9]: 99.63% | IC50 [9]: 4000 nM | % inhibition at top conc. [10]: 99.81% | IC50 [10]: 10200 nM | % inhibition at top conc. [11]: 87.03% | IC50 [11]: 5050 nM | % inhibition at top conc. ([12]; CTG): 97.88% | IC50 ([12]; CTG): 2110 nM | % inhibition at top conc. [13]: 62.99% | IC50 [13]: 25800 nM | % inhibition at top conc. [14]: 81.11% | IC50 [14]: 4400 nM | % inhibition at top conc. [15]: 96.44% | IC50 [15]: 1180 nM | % inhibition at top conc. [16]: 85.11% | IC50 [16]: 17800 nM | % inhibition at top conc. [17]: 99.92% | IC50 [17]: 2890 nM | % inhibition at top conc. ([18]; CTG): 97.45% | IC50 ([18]; CTG): 6070 nM | % inhibition at top conc. [19]: 95.72% | IC50 [19]: 3150 nM | % inhibition at top conc. [20]: 94.12% | IC50 [20]: 2690 nM | % inhibition at top conc. ([21]; CTG): 67.02% | IC50 ([21]; CTG): 66100 nM | % inhibition at top conc. [22]: 99.05% | IC50 [22]: 2600 nM | % inhibition at top conc. [23]: 89.16% | IC50 [23]: 5170 nM | % inhibition at top conc. [24]: 99.95% | IC50 [24]: 5650 nM | % inhibition at top conc. [25]: 96.72% | % inhibition at top conc. [26]: 85.52% | IC50 [26]: 5340 nM | % inhibition at top conc. [27]: 97.87% | IC50 [27]: 2450 nM | % inhibition at top conc. [28]: 85.71% | % inhibition at top conc. [29]: 99.89% | IC50 [29]: 8680 nM

Cc1ccc(C(=O)Nc2cc(N3CCNCC3)ccc2-c2ccc(/C=C/C(=O)NO)cc2C)cc1.Cl [ZZY-003]
% inhibition at top conc. [1]: 99.92% | IC50 ([1]; Homo sapiens): 4560 nM | % inhibition at top conc. ([2]; CTG): 99.82% | IC50 ([2]; Homo sapiens, SF-268, CTG): 1090 nM | % inhibition at top conc. [3]: 99.89% | IC50 ([3]; Homo sapiens): 1240 nM | % inhibition at top conc. [4]: 96.23% | IC50 ([4]; Homo sapiens): 4360 nM | % inhibition at top conc. [5]: 99.97% | IC50 ([5]; Homo sapiens): 2250 nM | % inhibition at top conc. [6]: 97.73% | IC50 ([6]; Homo sapiens): 1490 nM | % inhibition at top conc. [7]: 97.98% | IC50 ([7]; Homo sapiens): 5130 nM | % inhibition at top conc. [8]: 99.61% | IC50 ([8]; Homo sapiens): 480 nM | % inhibition at top conc. [9]: 99.94% | IC50 ([9]; Homo sapiens): 370 nM | % inhibition at top conc. [10]: 99.95% | IC50 ([10]; Homo sapiens): 3170 nM | % inhibition at top conc. [11]: 98.70% | IC50 ([11]; Homo sapiens): 9950 nM | % inhibition at top conc. ([12]; CTG): 99.96% | IC50 ([12]; Homo sapiens, 786-0, CTG): 3910 nM | % inhibition at top conc. [13]: 98.95% | IC50 ([13]; Homo sapiens): 780 nM | % inhibition at top conc. [14]: 97.14% | IC50 ([14]; Homo sapiens): 330 nM | % inhibition at top conc. [15]: 99.84% | IC50 ([15]; Homo sapiens, CNE2Z): 1520 nM | % inhibition at top conc. [16]: 92.30% | IC50 ([16]; Homo sapiens): 1150 nM | % inhibition at top conc. [17]: 99.95% | IC50 ([17]; Homo sapiens): 680 nM | % inhibition at top conc. ([18]; CTG): 99.85% | IC50 ([18]; Homo sapiens, K562, CTG): 460 nM | % inhibition at top conc. [19]: 99.94% | IC50 ([19]; Homo sapiens): 430 nM | % inhibition at top conc. [20]: 99.24% | IC50 ([20]; Homo sapiens): 1740 nM | % inhibition at top conc. ([21]; CTG): 99.86% | IC50 ([21]; Homo sapiens, BT-474, CTG): 510 nM | % inhibition at top conc. [22]: 99.95% | IC50 [22]: 820 nM | % inhibition at top conc. [23]: 99.68% | IC50 ([23]; Homo sapiens): 1590 nM | % inhibition at top conc. [24]: 99.91% | IC50 ([24]; Homo sapiens): 300 nM | % inhibition at top conc. [25]: 95.22% | IC50 [25, 30]: 2210 nM | % inhibition at top conc. [26]: 96.56% | IC50 ([26]; Homo sapiens): 1380 nM | % inhibition at top conc. [27]: 99.83% | IC50 ([27]; Homo sapiens): 1640 nM | % inhibition at top conc. [28]: 92.06% | IC50 [28, 30]: 1810 nM | % inhibition at top conc. [29]: 98.94% | IC50 ([29]; Homo sapiens): 260 nM
